In patent US20220386606A1, “SPECIFICALLY SUBSTITUTED 3-PHENYL-5-SPIROCYCLOPENTYL-3-PYRROLIN-2-ONES AND THEIR USE AS HERBICIDES” (Bayer Aktiengesellschaft, priority 2019, published 2022):

What was measured:
SETVI [1] = experiment: Pre-emergence herbicidal action against SETVI; assay type: in vivo, Setaria viridis; conditions: 320 g/ha, scored visually after 3 weeks vs untreated controls
Description: (§1) Seeds of monocotyledonous and dicotyledonous weed plants and crop plants are laid out in sandy loam soil in wood-fiber pots and covered with soil. The compounds of the invention, formulated in the form of wettable powders (WP) or as emulsion concentrates (EC), are then applied to the surface of the covering soil as aqueous suspension or emulsion at a water application rate equating to 600 to 800 L/ha with addition of 0.2% wetting agent.
(§2) After the treatment, the pots are placed in a greenhouse and kept under good growth conditions for the trial plants. The damage to the test plants is scored visually after a test period of 3 weeks by comparison with untreated controls (herbicidal activity in percent (%): 100% activity=the plants have died, 0% activity=like control plants).

ALOMY [2] = experiment: Post-emergence herbicidal action against ALOMY; assay type: in vivo, Alopecurus myosuroides; conditions: 80 g/ha, visual assessment after about 3 weeks
Procedure: (§3) Seeds of monocotyledonous and dicotyledonous weed and crop plants are laid out in sandy loam soil in wood-fiber pots, covered with soil and cultivated in a greenhouse under good growth conditions. 2 to 3 weeks after sowing, the test plants are treated at the one-leaf stage. The compounds of the invention, formulated in the form of wettable powders (WP) or as emulsion concentrates (EC), are then sprayed onto the green parts of the plants as aqueous suspension or emulsion at a water application rate equating to 600 to 800 l/ha with addition of 0.2% wetting agent. After the test plants have been left to stand in the greenhouse under optimal growth conditions for about 3 weeks, the action of the preparations is assessed visually in comparison to untreated controls (herbicidal action in percent (%): 100% activity=the plants have died, 0% activity=like control plants).

ECHCG [3] = experiment: Pre-emergence herbicidal action against ECHCG; assay type: in vivo, Echinochloa crus-galli; conditions: 320 g/ha, scored visually after 3 weeks vs untreated controls
Description: as §1, §2

LOLRI [4] = experiment: Pre-emergence herbicidal action against LOLRI (Table 8, titled post-emergence at 320 g/ha); assay type: in vivo, Lolium rigidum; conditions: table stands in the pre-emergence section
Description: as §1, §2

ECHCG [5] = experiment: Post-emergence herbicidal action against ECHCG; assay type: in vivo, Echinochloa crus-galli; conditions: 80 g/ha, visual assessment about 3 weeks after treatment vs untreated controls
Procedure: as §3

DIGSA [6] = experiment: Post-emergence herbicidal action against DIGSA; assay type: in vivo, Digitaria sanguinalis; conditions: 80 g/ha, visual assessment about 3 weeks after treatment vs untreated controls
Procedure: as §3

ALOMY [7] = experiment: Pre-emergence herbicidal action against ALOMY; assay type: in vivo, Alopecurus myosuroides; conditions: 320 g/ha, scored visually after 3 weeks vs untreated controls
Description: as §1, §2

DIGSA [8] = experiment: Pre-emergence herbicidal action against DIGSA; assay type: in vivo, Digitaria sanguinalis; conditions: 320 g/ha, scored visually after 3 weeks vs untreated controls
Description: as §1, §2

SETVI [9] = experiment: Post-emergence herbicidal action against SETVI; assay type: in vivo, Setaria viridis; conditions: 80 g/ha, visual assessment about 3 weeks after treatment vs untreated controls
Procedure: as §3

AVEFA [10] = experiment: Pre-emergence herbicidal action against AVEFA; assay type: in vivo, Avena fatua; conditions: 320 g/ha, scored visually after 3 weeks vs untreated controls
Description: as §1, §2

LOLRI [11] = experiment: Post-emergence herbicidal action against LOLRI; assay type: in vivo, Lolium rigidum; conditions: 80 g/ha, visual assessment about 3 weeks after treatment vs untreated controls
Procedure: as §3

AVEFA [12] = experiment: Post-emergence herbicidal action against AVEFA; assay type: in vivo, Avena fatua; conditions: 80 g/ha, visual assessment after about 3 weeks
Procedure: as §3

SMILES	Pre-emergence action against SETVI in % (SETVI [1])	Post-emergence action against ALOMY in % (ALOMY [2])	Pre-emergence action against ECHCG in % (ECHCG [3])	Pre-emergence herbicidal action against LOLRI in % (LOLRI [4])	Post-emergence action against ECHCG in % (ECHCG [5])	Post-emergence action against DIGSA in % (DIGSA [6])	Pre-emergence action against ALOMY in % (ALOMY [7])	Pre-emergence action against DIGSA in % (DIGSA [8])	Post-emergence action against SETVI in % (SETVI [9])	Pre-emergence action against AVEFA in % (AVEFA [10])	Post-emergence action against LOLRI in % (LOLRI [11])	Post-emergence action against AVEFA in % (AVEFA [12])
CC#Cc1cc(Br)c(C2=C(OC(=O)C(C)C)C3(CCC(COC)C3)NC2=O)c(CC)c1 (stereo not drawn) [Example P-45]	80%											
C=CCOCC1CCC2(C1)NC(=O)C(c1c(F)cc(C#CC)cc1OC)=C2OC(=O)OCC (stereo not drawn) [Example P-78]	100%	100%	100%	100%	100%	90%	100%	100%	100%			
C=CCOCC1CCC2(C1)NC(=O)C(c1c(F)cc(C#CC)cc1OC)=C2O (stereo not drawn) [Example I-54]	100%	100%	100%	100%	100%		100%	100%	100%	80%	90%	
CC#Cc1cc(F)c(C2=C(O)C3(CCC(COCCC)C3)NC2=O)c(OC)c1 (stereo not drawn) [Example I-57]	100%		100%	100%	100%	90%	100%	100%	100%		80%	
CC#Cc1cc(Br)c(C2=C(OC(=O)OCC)C3(CCC(COC)C3)NC2=O)c(OCC)c1 (stereo not drawn) [Example P-94]	100%		100%	100%	100%	80%	100%	100%	100%	100%	90%	
C=CCOCC1CCC2(C1)NC(=O)C(c1c(C)cc(C#CC)cc1OC)=C2OC(=O)OCC (stereo not drawn) [Example P-68]	100%	100%	100%	100%	100%	90%	100%	100%	100%		90%	90%
CC#Cc1cc(C)c(C2=C(O)C3(CCC(COCC)C3)NC2=O)c(F)c1 (stereo not drawn) [Example I-37]	100%	100%	100%	100%	100%	100%	80%	90%	100%		90%	100%
CC#Cc1cc(F)c(C2=C(O)C3(CCC(COCCC)C3)NC2=O)c(OC)c1 (stereo not drawn) [Example I-56]	100%	90%	100%	100%	100%	90%	80%	100%	100%		80%	90%
